Series [1] has as its system AMPK. The conditions noted are these: greater potency than Compound C; cited from earlier work.
For series [2] the following is noted: rat, microsomes.
Series [3] in a line: In vitro metabolism in rat liver microsomes. The note with it: rat (IGS SD) liver microsomes. A general note: Liver microsomes are a subcellular fraction often used to study metabolism.
For series [4] the following is noted: mouse, microsomes.
The conditions of series [5]: read-out: cytotoxicity IC50; cited from earlier work.
A short description of series [6]: Systemic PK after oral administration in rats. The conditions noted are these: plasma, oral 25 mg/kg, male SD rats. It is filed as in vivo.
For series [7] the following is noted: cited from earlier work.
Series [8] in a line: In vitro metabolism in human liver microsomes.
Series [9] has as its system ULK1. The note with it: read-out: IC50 ULK1; kinase inhibition assays; cited from earlier work.
Series [10] is described as follows: Intracerebral microdialysis and plasma PK after i.p. administration in rats. The series is classed as in vivo, male SD rats.
The nature of series [11]: In vitro metabolism in mouse liver microsomes. The note with it: mouse (C57BL/6) liver microsomes.
The conditions of series [12]: microsomes.
For series [13] the following is noted: orthotopically implanted C6 glioma, rats; cited from earlier work.
For series [14] the following is noted: cited from earlier work. The source holds these as a separate data set.
Setting [15] is: brain ECF, i.p. 25 mg/kg, male SD rats.
Where [16] appears, read: i.p. 25 mg/kg, male SD rats, 25 mg/kg.
[17] abbreviates: plasma unbound, i.p. 25 mg/kg, male SD rats.
The mark [18] stands for this setting: plasma, i.p. 25 mg/kg, male SD rats.
The mark [19] stands for this setting: plasma, i.p. 25 mg/kg, male SD rats, 25 mg/kg.

Where “and” joins values, the source holds several entries; their conditions need not be identical. Equal entries are not always repeated. Where two headings read alike, the source gives them in different places.

As usually defined, the IC50 is the concentration that gives 50% inhibition. In general, Cmax refers to the peak of the concentration-time curve. As usually defined, the Tmax is the time at which the peak concentration occurs. As usually defined, the logP is the decadic logarithm of the partition coefficient of the neutral form, usually between octanol and water. Consider `CNC(=O)c1ccccc1Oc1nc(Nc2cc(OC)c(OC)c(OC)c2)ncc1Br` [SBI-0206965], for which the “AMPK inhibition potency relative to Compound C” value in series [1] is listed as […]. The entries for the “CLint, app” value in series [2], in [4] and in series [12] (human) were […], […] and […], respectively. In addition, the T1/2 in series [3] worked out at […]; in series [6] (25 mg/kg), […]; in [8] it was […]; in series [10] (setting [19]), […]; in series [11], […]. Further, the concentration for half-maximal inhibition (IC50) in series [5] was […]; in series [9] it was […]. Further, the AUC0-inf in [6] was determined as […]; in series [10] (setting [15]), […]; in [10] (setting [17]), […]; in series [10] (setting [18]), […]. For the same compound, the “AUC0–5” value in [6] was found to be […]; in series [10] (setting [15]) it was […]; in series [10] (setting [17]) it was […]; in series [10] (setting [18]), […]. In addition, the Cmax in series [6] is […]; in series [10] (brain ECF, i.p. 25 mg/kg, male SD rats, 25 mg/kg), […]; in series [10] (plasma unbound (corrected for protein binding), i.p. 25 mg/kg, male SD rats) it was […]; in [10] (setting [19]) it was […]; in series [10] (read-out: brain ECF Cmax, brain ECF, i.p. 25 mg/kg, rats) it was 750 nM. The Tmax is […] in series [6] (non-compartmental analysis), […] in series [10] (setting [15]) and […] in series [10] (setting [18]). Besides, in [7], the logP was […]. Besides, the “AUC0–5 ratio (brain ECF/plasma unbound)” value in [10] (setting [16]) came to […]. In addition, the “Cmax ratio (brain ECF/plasma unbound)” value in [10] (setting [16]) is […]. Besides, in series [10] (plasma and brain ECF, summary in abstract), the “time to plasma and brain ECF peak levels” value was […]. Also, in series [10] (plasma, i.p. 25 mg/kg, rats), the “time to peak plasma concentration” value is recorded as […]. Also, the “brain partitioning (ratio of Cmax and AUC in brain ECF to unbound plasma)” value in series [10] (rats, plasma corrected for protein binding) is listed as […]. This compound had an elimination half-life in series [10] (summary in abstract) of […]. Moreover, the “CLint, scaled (estimated in-vitro hepatic intrinsic clearance)” value in series [12] is […].

For `N#Cc1ccc(C(c2ccc(C#N)cc2)n2cncn2)cc1` [letrozole], the “tumoral uptake relative to normal brain” value in [13] was “two-fold higher”.

Take `Cn1nnc2c(C(N)=O)ncn2c1=O` [temozolomide]: the elimination half-life result in [14] is given as “approximately 2 h”.

Source of the values: article PMC10154080 (Investigational new drugs, 2022).
